Earlier results as cited in patent US20140023701A1, “Method and Composition for Ameliorating the Effects tor a Subject Exposed to Radiation or Other Sources of Oxidative Stress” (priority 2011, published 2014).
Like-named read-outs stand apart in the source and are kept apart here.

Tests used:
Human [1] = system: Human
Human [2] = system: Human; remark: listed apart in the source
[3] = no observed adverse event level, most sensitive subgroup
[4] = tolerable upper intake level, daily intake

Row | Compound | Human NOAEL (Human [1]; [3]) | Human UL (19-70 yo group) (Human [2]; [4]) | Human NOAEL (Human [1]; human) | Human UL (19-70 yo group) (Human [2])
1 | [Mg] [Magnesium] | 700 mg | 350 mg |  | 
2 | C=C1CC[C@H](O)C/C1=C/C=C1\CCC[C@]2(C)[C@@H]([C@H](C)CCCC(C)C)CC[C@@H]12 [Vitamin D, cholecalciferol] | 800 IU |  |  | 
3 | CC1=C(C/C=C(\C)CCC[C@H](C)CCC[C@H](C)CCCC(C)C)C(=O)c2ccccc2C1=O [Vitamin K, phytonadione] |  |  | 0.03 mg | 
4 | Nc1nc2ncc(CNc3ccc(C(=O)N[C@@H](CCC(=O)O)C(=O)O)cc3)nc2c(=O)[nH]1 [Folate, folic acid] | 1 mg |  |  | 
5 | O=C(O)c1cccnc1 [Niacin, inositol hexanicotinate] |  | 35 mg |  | 
6 | cyanocobalamin [Vitamin B12] | 3 mg |  |  | 
7 | Zinc | 30 mg |  |  | 40 mg
8 | [Ca] [Calcium] | 1500 mg |  |  | 2500 mg
9 | O=C(O)CCCC[C@@H]1SC[C@@H]2NC(=O)N[C@@H]21 [Biotin] | 2.5 mg |  |  | 
10 | CC(C)(CO)[C@@H](O)C(=O)NCCC(=O)O [Pantothenic acid, d-calcium pantothenate] | 1000 mg |  |  | 
11 | [Mn+2] [Manganese] | 10 mg |  |  | 11 mg
12 | Vitamin A |  |  | 10,000 IU | 10,000 U
13 | [Mo] [Molybdenum] | 0.35 mg | 2 mg |  | 
14 | Vitamin E |  | 1490 IU | 1200 IU | 
15 | chromium polynicotinate | 1 mg |  |  | 
16 | Copper | 9 mg |  |  | 10 mg
17 | Cc1ncc(CO)c(CO)c1O.Cl [Vitamin B6, pyridoxine hydrochloride] |  |  | 200 mg | 100 mg
18 | O=C1O[C@H]([C@@H](O)CO)C(O)=C1O [Vitamin C, ascorbic acid] | >1000 mg |  |  | 
